In the Kinase Knowledgebase extract (Sharma et al. 2016):

How the values were obtained:
EGFR (human) [1] = molecular target: EGFR (human) (UniProt P00533); settings: a431
[2] = molecular target: EGFR (human), P00533 [Antiproliferation of H195 Cells Having Overexpressed EGFR T790 Mutant Kinase]
[3] = molecular target: EGFR (human), P00533 [Assessment of EGFR T790 Mutant Kinase Activity]
EGFR (human) [4] = molecular target: EGFR (human) (UniProt P00533)

EGFR (human), P00533 [Antiproliferation of H195 Cells Having Overexpressed EGFR T790 Mutant Kinase], sequence (P00533 whole entry, looked up, change not shown): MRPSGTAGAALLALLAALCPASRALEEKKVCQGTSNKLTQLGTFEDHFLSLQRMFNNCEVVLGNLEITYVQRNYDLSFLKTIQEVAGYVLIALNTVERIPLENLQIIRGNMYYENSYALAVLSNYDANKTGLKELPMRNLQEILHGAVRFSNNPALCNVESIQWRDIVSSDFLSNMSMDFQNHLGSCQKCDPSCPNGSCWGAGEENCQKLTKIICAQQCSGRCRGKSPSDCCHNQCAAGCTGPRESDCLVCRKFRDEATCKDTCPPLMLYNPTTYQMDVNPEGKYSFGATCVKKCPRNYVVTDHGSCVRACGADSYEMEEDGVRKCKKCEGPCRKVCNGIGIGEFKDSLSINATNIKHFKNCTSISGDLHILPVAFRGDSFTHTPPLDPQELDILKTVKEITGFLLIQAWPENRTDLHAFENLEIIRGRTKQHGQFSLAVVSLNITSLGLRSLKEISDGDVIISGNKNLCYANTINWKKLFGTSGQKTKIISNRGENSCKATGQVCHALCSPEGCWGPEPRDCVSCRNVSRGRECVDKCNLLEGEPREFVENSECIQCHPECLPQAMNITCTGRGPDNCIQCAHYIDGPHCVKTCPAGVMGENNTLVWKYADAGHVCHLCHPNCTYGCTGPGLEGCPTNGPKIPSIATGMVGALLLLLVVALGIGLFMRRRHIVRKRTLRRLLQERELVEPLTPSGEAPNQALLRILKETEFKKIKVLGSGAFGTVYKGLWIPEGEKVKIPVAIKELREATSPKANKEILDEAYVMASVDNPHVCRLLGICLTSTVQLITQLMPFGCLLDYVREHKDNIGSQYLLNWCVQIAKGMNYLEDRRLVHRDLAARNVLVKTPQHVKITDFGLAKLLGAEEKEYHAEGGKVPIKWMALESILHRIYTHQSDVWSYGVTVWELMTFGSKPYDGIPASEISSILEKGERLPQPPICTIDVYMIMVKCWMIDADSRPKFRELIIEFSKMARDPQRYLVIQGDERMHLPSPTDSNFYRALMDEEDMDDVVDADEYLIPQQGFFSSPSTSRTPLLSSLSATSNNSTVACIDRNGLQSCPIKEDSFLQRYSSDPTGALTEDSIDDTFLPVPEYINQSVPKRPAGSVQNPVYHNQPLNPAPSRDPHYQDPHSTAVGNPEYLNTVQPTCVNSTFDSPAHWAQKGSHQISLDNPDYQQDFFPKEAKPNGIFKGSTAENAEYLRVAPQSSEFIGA
EGFR (human), sequence (P00533 whole entry, looked up): as the sequence (P00533 whole entry, looked up, change not shown) above
EGFR (human), P00533 [Assessment of EGFR T790 Mutant Kinase Activity], sequence (P00533 whole entry, looked up, change not shown): as above

C=CC(=O)N1CC[C@H](Oc2cc3c(Nc4ccc(F)c(Cl)c4F)ncnc3cc2OC)C[C@H]1C(=O)NCCO
IC50 (EGFR (human) [1]): 5.4 nM
IC50 [2]: 39 nM

C=CC(=O)N1CC[C@H](Oc2cc3c(Nc4ccc(Br)c(Cl)c4F)ncnc3cc2OC)C1
IC50 (EGFR (human) [1]): 5 nM
IC50 [2]: 55 nM

C=C(CN(C)C)C(=O)N1CC(Oc2cc3c(Nc4ccc(F)c(Cl)c4F)ncnc3cc2OC)C1
IC50 (EGFR (human) [1]): 41 nM
IC50 [2]: 11 nM

C=CC(=O)N1CC(Oc2cc3c(Nc4ccc(F)c(Cl)c4F)ncnc3cc2OC)C1
IC50 (EGFR (human) [1]): 0.3 nM
IC50 [2]: 1.5 nM

C=CC(=O)N1CCC(Oc2cc3c(Nc4ccc(F)c(Cl)c4F)ncnc3cc2OC)CC1
IC50 [3]: 24 nM

C=CC(=O)N1CCC(Oc2cc3c(Nc4cccc(Cl)c4F)ncnc3cc2OC)CC1
IC50 (EGFR (human) [1]): 2 nM
IC50 [2]: 22 nM

C=CC(=O)N1CC[C@H](Oc2cc3c(Nc4ccc(F)c(Cl)c4F)ncnc3cc2OC)C[C@H]1C(=O)NCCS(C)(=O)=O
IC50 (EGFR (human) [1]): 2.2 nM
IC50 [2]: 50.4 nM

C=CC(=O)N1CC[C@H](Oc2cc3c(Nc4ccc(F)c(Cl)c4F)ncnc3cc2OC)C[C@H]1C(=O)NCCSC
IC50 (EGFR (human) [1]): 2.4 nM
IC50 [2]: 5 nM

C=C(NC(C)=O)C(=O)N1CC(Oc2cc3c(Nc4ccc(F)c(Cl)c4F)ncnc3cc2OC)C1
IC50 (EGFR (human) [1]): 3.1 nM
IC50 [2]: 50 nM

C=CC(=O)N1CC(Oc2cc3c(Nc4cccc(Cl)c4F)ncnc3cc2OC)C1
IC50 (EGFR (human) [1]): 1.6 nM
IC50 [2]: 9 nM

C=CC(=O)N1CC(Oc2cc3c(Nc4cccc(Cl)c4)ncnc3cc2OC)C1
IC50 (EGFR (human) [1]): 1.6 nM
IC50 [2]: 17.7 nM

C=CC(=O)N1CC[C@H](Oc2cc3c(Nc4ccc(F)c(Cl)c4F)ncnc3cc2OC)C[C@H]1C(N)=O
IC50 (EGFR (human) [1]): 3 nM
IC50 [2]: 5.2 nM

C=CC(=O)N1CC[C@H](Oc2ccc3ncnc(Nc4ccc(F)c(Cl)c4F)c3c2)C1
IC50 (EGFR (human) [1]): 5 nM
IC50 [2]: 413 nM

C=CC(=O)N1CC[C@H](Oc2cc3c(Nc4ccc(F)c(Cl)c4F)ncnc3cc2OC)C[C@H]1C(=O)NCCOC
IC50 (EGFR (human) [1]): 3.4 nM
IC50 [2]: 11 nM

C=CC(=O)N1CCC(Oc2cc3c(Nc4ccc(F)c(Cl)c4F)ncnc3cc2OCCOC)CC1
IC50 (EGFR (human) [1]): 4 nM
IC50 [2]: 47 nM

C=CC(=O)N1CCC(Oc2cc3c(Nc4ccc(F)c(Cl)c4)ncnc3cc2OC)CC1
IC50 (EGFR (human) [1]): 17 nM
IC50 [2]: 16 nM

C=CC(=O)N1CC(Oc2cc3c(N[C@H](C)c4ccccc4)ncnc3cc2OC)C1
IC50 (EGFR (human) [1]): 7 nM
IC50 [2]: 156 nM

C=CC(=O)N1CC[C@@H](Oc2cc3c(Nc4ccc(F)c(Cl)c4F)ncnc3cc2OC)C[C@@H]1C(N)=O
IC50 (EGFR (human) [1]): 0.8 nM
IC50 [2]: 5.2 nM

COc1cc2ncnc(Nc3cccc(Cl)c3F)c2cc1OC1CCN(C(=O)CO)CC1
IC50 (EGFR (human) [1]): 39 nM
IC50 (EGFR (human) [4]): 204 nM

C=CC(=O)N1CCC(Oc2cc3c(Nc4cccc(Br)c4)ncnc3cc2OC)CC1
IC50 (EGFR (human) [1]): 1 nM
IC50 [2]: 96 nM

C=CC(=O)N1CCC(Oc2cc3c(Nc4cccc(C)c4)ncnc3cc2OC)CC1
IC50 (EGFR (human) [1]): 1 nM
IC50 [2]: 236 nM

C=CC(=O)N1CC[C@@H](Oc2cc3c(Nc4ccc(F)c(Cl)c4F)ncnc3cc2OC)C[C@@H]1C(=O)NC
IC50 (EGFR (human) [1]): 2.9 nM
IC50 [2]: 2.6 nM

C=CC(=O)N1CC[C@H](Oc2cc3c(Nc4ccc(F)c(Cl)c4F)ncnc3cc2OC)C[C@H]1C(=O)NCCN(C)C
IC50 (EGFR (human) [1]): 5.7 nM
IC50 [2]: 30 nM

C=CC(=O)N1CC[C@@H](Oc2cc3c(Nc4ccc(F)c(Cl)c4F)ncnc3cc2OC)C[C@@H]1C(=O)OC
IC50 (EGFR (human) [1]): 0.7 nM
IC50 [2]: 5.4 nM

C=C(CN1CCOCC1)C(=O)N1CC(Oc2cc3c(Nc4ccc(F)c(Cl)c4F)ncnc3cc2OC)C1
IC50 (EGFR (human) [1]): 1.5 nM
IC50 [2]: 8 nM

C=CC(=O)N1CC[C@H](Oc2cc3c(Nc4ccc(F)c(Cl)c4F)ncnc3cc2OC)C1
IC50 (EGFR (human) [1]): 4 nM
IC50 [2]: 80 nM
IC50 (EGFR (human) [4]): 3 nM

C=CC(=O)N1CCC(Oc2cc3c(Nc4ccc(Br)c(C)c4)ncnc3cc2OC)CC1
IC50 (EGFR (human) [1]): 6 nM
IC50 [2]: 48 nM

C=CC(=O)N1CC[C@@H](Oc2cc3c(Nc4ccc(Cl)c(Cl)c4F)ncnc3cc2OC)C[C@@H]1C(N)=O
IC50 (EGFR (human) [1]): 0.8 nM
IC50 [2]: 1.1 nM

COc1cc2ncnc(Nc3ccc(F)c(Cl)c3F)c2cc1OC1CN(C(=O)/C=C\Cl)C1
IC50 (EGFR (human) [1]): 2.4 nM
IC50 [2]: 19 nM

C=CC(=O)N1CCC(Oc2cc3c(Nc4cccc(C=C)c4)ncnc3cc2OC)CC1
IC50 (EGFR (human) [1]): 1.9 nM
IC50 [2]: 27 nM

C=CC(=O)N1CC[C@H](Oc2cc3c(N[C@H](C)c4ccccc4)ncnc3cc2OC)C1
IC50 (EGFR (human) [1]): 8 nM
IC50 [2]: 167 nM

COc1cc2ncnc(Nc3ccc(Cl)c(Cl)c3F)c2cc1OC1CCN(C(=O)/C=C/CN(C)C)CC1
IC50 (EGFR (human) [1]): 165 nM

C=CC(=O)N1CCC(Oc2cc3c(Nc4ccc(Cl)cc4)ncnc3cc2OC)CC1
IC50 (EGFR (human) [1]): 4.6 nM

CC#CC(=O)N1CCC(Oc2cc3c(Nc4ccc(F)c(Cl)c4F)ncnc3cc2OC)CC1
IC50 (EGFR (human) [1]): 190 nM

C=CC(=O)N1CCC(Oc2cc3c(Nc4cccc(C(F)(F)F)c4F)ncnc3cc2OC)CC1
IC50 (EGFR (human) [1]): 11 nM

COc1cc2ncnc(Nc3ccc(F)c(Cl)c3F)c2cc1O[C@H]1CCN(C(=O)/C=C/CN2CCOCC2)C1
IC50 (EGFR (human) [1]): 85 nM

C=CC(=O)N1CCC(Oc2cc3c(Nc4ccc(F)c(F)c4F)ncnc3cc2OC)CC1
IC50 (EGFR (human) [1]): 43 nM
